Reference: US20260116920A1, “HUMAN TRANSFERRIN RECEPTOR BINDING PEPTIDE” (PEPTIDREAM INC., priority 2021, published 2026)

Target: T1, human transferrin receptor (hTfR) (Homo sapiens, UniProt P02786)
T1 construct: made in house
Experiment: Evaluation of molecular interaction between transferrin receptor (hTfR) and peptide using surface plasmon resonance (SPR)
Type: binding
Details: surface plasmon resonance, binding to hTfR; KD class symbol; read-out: SPR (KD value)
Method in brief: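 Recombinant human TfR dimer (0.5 μM) was captured on a Ni-charged NTA chip and amine-coupled with EDC/NHS, then ethanolamine-capped. Peptides at 5–100 nM in HEPES pH 8.0 buffer with 150 mM NaCl, 0.05% Tween 20, 0.1% BSA and 1.0% DMSO were run by single-cycle kinetics; KD came from least-squares curve fitting.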

T1 sequence (P02786 89-760 limits assumed): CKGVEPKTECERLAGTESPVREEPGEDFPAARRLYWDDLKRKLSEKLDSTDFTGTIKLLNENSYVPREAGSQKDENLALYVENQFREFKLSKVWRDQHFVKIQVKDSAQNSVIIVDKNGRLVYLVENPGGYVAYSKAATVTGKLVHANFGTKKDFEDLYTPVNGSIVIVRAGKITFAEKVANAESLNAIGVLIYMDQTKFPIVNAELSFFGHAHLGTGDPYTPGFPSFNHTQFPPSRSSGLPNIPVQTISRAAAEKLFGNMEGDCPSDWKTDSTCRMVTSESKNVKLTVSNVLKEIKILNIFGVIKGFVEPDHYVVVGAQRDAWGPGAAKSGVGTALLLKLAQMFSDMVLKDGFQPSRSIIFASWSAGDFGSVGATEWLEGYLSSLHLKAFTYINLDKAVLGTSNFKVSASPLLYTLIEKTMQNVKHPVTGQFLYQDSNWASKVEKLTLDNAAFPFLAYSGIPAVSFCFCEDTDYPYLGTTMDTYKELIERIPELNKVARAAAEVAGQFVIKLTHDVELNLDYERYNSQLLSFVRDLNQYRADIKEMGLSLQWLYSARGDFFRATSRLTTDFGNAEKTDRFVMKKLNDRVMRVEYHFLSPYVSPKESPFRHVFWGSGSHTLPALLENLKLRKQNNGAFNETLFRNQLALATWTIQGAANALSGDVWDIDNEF

Kd [nM]	Compound
1 to 100	CC[C@H](C)[C@@H]1NC(=O)[C@H](Cc2ccc(OCC(=O)O)cc2)NC(=O)[C@H](Cc2ccc(O)cc2)NC(=O)[C@H](CC(N)=O)NC(=O)[C@H](Cc2cn(CC(=O)O)c3ccccc23)NC(=O)[C@H](C(C)C)NC(=O)[C@H](Cc2cccc(Cl)c2)N(C)C(=O)[C@H](C(C)C)NC(=O)[C@H](C)NC(=O)CSC[C@@H](C(=O)NCCOCCOCCOCCOCCC(N)=O)NC(=O)[C@H](Cc2ccc(O)cc2)N(C)C(=O)[C@H](Cc2ccccc2)NC(=O)[C@H](CCC(=O)NCCOCCOCCOCCOCCOCCOCCOCCOC)NC(=O)[C@H](CCCNC(=N)N)NC(=O)[C@H]([C@@H](C)CC)NC1=O [compound 102]
1 to 100	CC[C@H](C)[C@@H]1NC(=O)[C@H](Cc2ccc(OCC(=O)O)cc2)NC(=O)[C@H](Cc2ccc(O)cc2)NC(=O)[C@H](CC(N)=O)NC(=O)[C@H](Cc2cn(CC(=O)O)c3ccccc23)NC(=O)[C@H](C(C)C)NC(=O)[C@H](Cc2cccc(Cl)c2)N(C)C(=O)[C@H](C(C)C)NC(=O)[C@H](C)NC(=O)CSC[C@@H](C(=O)NCCOCCOCCOCCOCCC(N)=O)NC(=O)[C@H](Cc2ccc(O)cc2)N(C)C(=O)[C@H](Cc2cccc(C(=O)O)c2)NC(=O)[C@H](CCCNC(=N)N)NC(=O)[C@H](CCC(=O)NCCOCCOCCOCCOCCOCCOCCOCCOC)NC(=O)[C@H]([C@@H](C)CC)NC1=O [compound 103]
1 to 100	CC[C@H](C)[C@@H]1NC(=O)[C@H](Cc2ccc(OCC(=O)O)cc2)NC(=O)[C@H](Cc2ccc(O)cc2)NC(=O)[C@H](CC(N)=O)NC(=O)[C@H](Cc2cn(CC(=O)O)c3ccccc23)NC(=O)[C@H](C(C)C)NC(=O)[C@H](Cc2cccc(Cl)c2)N(C)C(=O)[C@H](C(C)C)NC(=O)[C@H](C)NC(=O)CSC[C@@H](C(=O)NCCOCCOCCOCCOCCC(N)=O)NC(=O)[C@H](Cc2ccc(O)cc2)N(C)C(=O)[C@H](Cc2ccccc2)NC(=O)[C@H](CCCNC(=N)N)NC(=O)[C@H](CCC(N)=O)NC(=O)[C@H]([C@@H](C)CC)NC1=O [compound 104]
1 to 100	CC[C@H](C)[C@@H]1NC(=O)[C@H](Cc2ccc(OCC(=O)O)cc2)NC(=O)[C@H](Cc2ccc(O)cc2)NC(=O)[C@H](CC(N)=O)NC(=O)[C@H](Cc2cn(CC(=O)O)c3ccccc23)NC(=O)[C@H](C(C)C)NC(=O)[C@H](Cc2cccc(Cl)c2)N(C)C(=O)[C@H](C(C)C)NC(=O)[C@H](C)NC(=O)CSC[C@@H](C(=O)NCCOCCOCCOCCOCCC(N)=O)NC(=O)[C@H](Cc2ccc(O)cc2)N(C)C(=O)[C@H](Cc2ccccc2)NC(=O)[C@H](CCC(N)=O)NC(=O)[C@H](CCCNC(=N)N)NC(=O)[C@H]([C@@H](C)CC)NC1=O [compound 105]
1 to 100	CC[C@H](C)[C@@H]1NC(=O)[C@H](Cc2ccc(O)cc2)NC(=O)[C@H](Cc2ccc(O)cc2)NC(=O)[C@H](CC(N)=O)NC(=O)[C@H](Cc2c[nH]c3ccccc23)NC(=O)[C@H](C(C)C)NC(=O)[C@H](Cc2ccccc2)N(C)C(=O)[C@H](C(C)C)NC(=O)[C@H](C)NC(=O)CSC[C@@H](C(=O)NCC(=O)N[C@H](CCC(=O)O)C(=O)N[C@H](CCC(=O)O)C(=O)N[C@H](CCC(=O)O)C(=O)N[C@H](CCC(=O)O)C(=O)N[C@H](CCC(=O)O)C(=O)N[C@@H](CSCC(=O)NC)C(N)=O)NC(=O)[C@H](Cc2ccc(O)cc2)N(C)C(=O)[C@H](Cc2ccc(O)cc2)NC(=O)[C@H](CCCNC(=N)N)NC(=O)[C@H](CCCNC(=N)N)NC(=O)[C@H]([C@@H](C)CC)NC1=O [compound 107]
< 1	CC[C@H](C)[C@@H]1NC(=O)[C@H](Cc2ccc(OC)cc2)NC(=O)[C@H](Cc2ccc(O)cc2)NC(=O)[C@H](CC(N)=O)NC(=O)[C@H](Cc2cn(CC(=O)O)c3ccccc23)NC(=O)[C@H](C(C)C)NC(=O)[C@H](Cc2cccc(Cl)c2)N(C)C(=O)[C@H](C(C)C)NC(=O)[C@H](C)NC(=O)CSC[C@@H](C(=O)NCCOCCOCCOCCOCCC(N)=O)NC(=O)[C@H](Cc2ccc(O)cc2)N(C)C(=O)[C@H](Cc2ccccc2)NC(=O)[C@H](CCCNC(=N)N)NC(=O)[C@H](CCCNC(=N)N)NC(=O)[C@H]([C@@H](C)CC)NC1=O [compound 108]
